Test results reported in patent US4894382A, “Substituted 1,3-diazolyl-2-propanols and their use as antimycotic agents” (Bayer Aktiengesellschaft, priority 1983, dated 1990).
Values after ≈ are worked out from the molar mass of the structure shown.

Tests used:
[1] = system: Candida; assay: Antimycotic in vivo action (oral) in candidosis of mice; set-up: species or system mice of the SPF-CF1 type; conditions: 10-50 mg/kg one hour before and seven hours after i.v. infection
Experimental: Antimycotic in vivo action (oral) in candidosis of mice
Mice of the SPF-CF1 type were infected intravenously with 1-2×10^6 logarithmically growing Candida cells, suspended in physiological saline solution. The animals were treated orally one hour before and seven hours after the infection, with in each case 10-50 mg/kg of body weight of the products.
Untreated animals died 3 to 6 days after infection. The survival rate on the 6th day after infection was about 5% in the case of untreated animals.

[2] = system: Aspergillus fumigatus; assay: Antimycotic in vitro activity (series dilution test), Aspergillus fumigatus; type: cell-based; conditions: Sabourand's milieu d'epreuve, 5×10^4 germs/ml, 20° C., 96 hours, read-out: MIC values in Y/ml of nutrient medium for Aspergillus fumigatus
Experimental: (§1) Antimycotic in vitro activity
(§2) The in vitro tests were carried out in a series dilution test using germ inocula of on average 5×10^4 germs/ml of substrate. The nutrient medium used was (a) for dermatophytes and moulds: Sabourand's milieu d'epreuve, and (b) for yeasts: meat extract/glucose broth.
(§3) The incubation temperature was 20° C. and the incubation time was 24 to 96 hours for yeasts and 96 hours for dermatophytes and moulds.

[3] = system: dermatophytes, moulds and yeasts; assay: Antimycotic in vitro activity (series dilution test), overall; type: cell-based
Experimental: as §1, §2, §3

[4] = system: Torulopsis glabrata; assay: Antimycotic in vitro activity (series dilution test), Torulopsis glabrata; type: cell-based; conditions: Nakaseomyces glabratus; meat extract/glucose broth; 5×10^4 germs/ml; 20° C.; 24 to 96 hours; read-out: MIC values in Y/ml of nutrient medium for Torulopsis glabrata
Experimental: as §1, §2, §3

[5] = system: Trichophyton mentagr.; assay: Antimycotic in vitro activity (series dilution test), Trichophyton mentagr.; type: cell-based, Trichophyton mentagrophytes; conditions: Sabourand's milieu d'epreuve, 5×10^4 germs/ml, 20° C., 96 hours, read-out: MIC values in Y/ml of nutrient medium for Trichophyton mentagr.
Experimental: as §1, §2, §3

[6] = system: Candida albicans; assay: Antimycotic in vitro activity (series dilution test), Candida albicans; type: cell-based; conditions: meat extract/glucose broth, 5×10^4 germs/ml, 20° C., 24 to 96 hours, read-out: MIC values in Y/ml of nutrient medium for Candida albicans
Experimental: as §1, §2, §3

[7] = system: Microsporum canis; assay: Antimycotic in vitro activity (series dilution test), Microsporum canis; type: cell-based; conditions: Sabourand's milieu d'epreuve, 5×10^4 germs/ml, 20° C., 96 hours, read-out: MIC values in Y/ml of nutrient medium for Microsporum canis
Experimental: as §1, §2, §3

| Structure (SMILES) | Action (survivors on the 6th day after infection) [1] | action in candidosis of mice (in words) [1] | MIC [2] | antimycotic action in vitro (in words) [3] | MIC [4] | MIC [5] | MIC [6] | MIC [7] |
| --- | --- | --- | --- | --- | --- | --- | --- | --- |
| CC(C)(Cc1ccc(Cl)cc1)C(O)(Cn1ccnc1)Cn1cncn1 (centres unmarked) [Example 8] | ++++ (good action=80% survivors on the 6th day after infection) | good to very good action |  |  |  |  |  |  |
| CC(C)(Cc1ccc(Cl)cc1)C(O)(Cn1cncn1)Cn1cncn1 [Example 2] | +++++ (very good action=90% survivors on the 6th day after infection) | good to very good action | 4 µg/mL (≈ 11.1 µM) | good antimycotic action | 16 µg/mL (≈ 44.3 µM) | 1 µg/mL (≈ 2.77 µM) | 4 µg/mL (≈ 11.1 µM) | 4 µg/mL (≈ 11.1 µM) |
| CC(C)(Cc1ccc(Cl)cc1Cl)C(O)(Cn1cncn1)Cn1cncn1 [Example 1, 4-(2,4-dichlorophenyl)-3,3-dimethyl-2-(1,2,4-triazol-1-yl-methyl)-1-(1,2,4-triazol-1-yl)-2-butanol] | +++++ (very good action=90% survivors on the 6th day after infection) | good to very good action | 32 µg/mL (≈ 81 µM) | good antimycotic action | 64 µg/mL (≈ 162 µM) | 1 µg/mL (≈ 2.53 µM) | 32 µg/mL (≈ 81 µM) | 32 µg/mL (≈ 81 µM) |
| Cc1ccc(CC(C)(C)C(O)(Cn2cncn2)Cn2cncn2)cc1 [Example 3] | ++++ (good action=80% survivors on the 6th day after infection) | good to very good action | 4 µg/mL (≈ 11.7 µM) | good antimycotic action | 64 µg/mL (≈ 188 µM) | 1 µg/mL (≈ 2.94 µM) | 16 µg/mL (≈ 47 µM) | 8 µg/mL (≈ 23.5 µM) |
| CC(C)(Oc1ccc(Cl)cc1)C(O)(Cn1cncn1)Cn1cncn1 [Example 6] | ++++ (good action=80% survivors on the 6th day after infection) | good to very good action | 64 µg/mL (≈ 176 µM) | good antimycotic action | 16 µg/mL (≈ 44.1 µM) | 32 µg/mL (≈ 88.2 µM) | 4 µg/mL (≈ 11 µM) |  |
| CC(C)(CSc1ccc(Cl)cc1)C(O)(Cn1cncn1)Cn1cncn1 [Example 5] | ++++ (good action=80% survivors on the 6th day after infection) | good to very good action | 32 µg/mL (≈ 81.4 µM) | good antimycotic action | 64 µg/mL (≈ 163 µM) | 1 µg/mL (≈ 2.55 µM) | 32 µg/mL (≈ 81.4 µM) | 32 µg/mL (≈ 81.4 µM) |
